Four compounds from ChEMBL document CHEMBL1201862, “PubChem BioAssay data set” (2004) can be followed below.

Among the test systems are Malme-3M; HL-60; DLD-1; KM-20L2; SNB-78; NCI/ADR-RES; DMS-114; HOP-92; NCI-H522; SK-OV-3; A498; KM12; CAKI-1.
What all share (test): growth of human tumour cells (NCI), 48 h

Structures are written as SMILES.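 All cell lines were grown in 96-well plates and treated with compound for 48 hours. Here, GI50 denotes the concentration required for 50% inhibition of growth.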 Active and inactive are the calls of the source. Rule as the data show it: active = GI50 up to about 1.1 µM and inactive = higher.

On to `C=C1C(=O)C[C@@]23CCC[C@@]12CC(OCOC)C3` (stereo partly specified), for which the GI50 was 2.84 µM (inactive) in the experiment with Malme-3M; 2.05 µM (inactive) in the experiment with HL-60; 1.84 µM (inactive) in the experiment with DLD-1; 2.83 µM (inactive) in the experiment on KM-20L2; 4.8 µM (inactive) in the experiment on SNB-78; 2.11 µM (inactive) in the experiment with NCI/ADR-RES. The GI50 in the experiment with DMS-114 is 1.91 µM (inactive); in the experiment on HOP-92, 2.32 µM (inactive); in the experiment on NCI-H522, 0.387 µM (active); in the experiment with SK-OV-3, 6.67 µM (inactive); with A498, 4.69 µM (inactive); in the experiment on KM12 it was 3.08 µM (inactive). Further, in the experiment on CAKI-1, the GI50 was 2.3 µM (inactive).

`O=NN(CCCl)C(=O)N[C@H]1CC[C@H](C(=O)O)CC1`: the GI50 in the experiment with Malme-3M was 94.8 µM (inactive); with DLD-1, > 100 µM (inactive); in the experiment on KM-20L2, > 100 µM (inactive); with SNB-78, > 100 µM (inactive); with NCI/ADR-RES it was > 100 µM (inactive); in the experiment on DMS-114, 22.8 µM (inactive). Moreover, the GI50 with HOP-92 was > 100 µM (inactive); in the experiment on NCI-H522, 38.6 µM (inactive); with SK-OV-3, > 100 µM (inactive); with A498 it was > 100 µM (inactive); in the experiment with KM12, > 100 µM (inactive); in the experiment with CAKI-1 it was > 100 µM (inactive).

`COc1ccc(C2CC(c3sc(Nc4ccc(C)cc4)nc3C)=NN2)cc1` (stereo unspecified): the GI50 with Malme-3M is > 10 µM (inactive); in the experiment with HL-60 it was 7.64 µM (inactive); in the experiment with DLD-1, 14 µM (inactive); with KM-20L2, 16.1 µM (inactive); in the experiment on SNB-78, 22.1 µM (inactive); in the experiment on NCI/ADR-RES, 17.4 µM (inactive). In addition, the GI50 in the experiment on DMS-114 was 14.1 µM (inactive); in the experiment on HOP-92 it was 14.2 µM (inactive); in the experiment with NCI-H522, 15.3 µM (inactive); in the experiment on SK-OV-3 it was 24.4 µM (inactive); in the experiment on A498 it was 15.4 µM (inactive); in the experiment on KM12, 15.2 µM (inactive). In the experiment on CAKI-1, the GI50 was 18 µM (inactive).

As for `NC(=O)c1ncn2c1NC(=O)CC2`, the GI50 in the experiment on Malme-3M is > 100 µM (inactive); with HL-60 it was > 100 µM (inactive); in the experiment with DLD-1 it was > 100 µM (inactive); in the experiment on KM-20L2, > 100 µM (inactive); in the experiment on SNB-78, > 45.3 µM (inactive); with NCI/ADR-RES, > 100 µM (inactive). The GI50 with DMS-114, with HOP-92, with NCI-H522, in the experiment with SK-OV-3, in the experiment with A498 and in the experiment on KM12 was > 100 µM (inactive) each time. Besides, the GI50 with CAKI-1 was > 100 µM (inactive).
